This is an account of results in patent US4283494A, “Microbial lipase, process for its preparation and microbiologically pure culture therefor” (Meito Sangyo Kabushiki Kaisha, priority 1978, dated 1981).

Experiment [1] concerns microbial lipase of the invention, Alcaligenes sp. PL-679 Meito (FERM-P No. 3783, ATCC 31371). Particulars: 10 min.
For experiment [2] the test system is unchanged. The experiment can be described thus: Lipase activity inhibition by inhibiting reagents (contact at 37° C. for 10 minutes, then olive oil emulsion assay). Format: biochemical. To be noted: inhibiting reagent 10^-2 mole, lipase about 3 U/ml.
Protocol: An aqueous solution of the lipase sample (about 3 units/ml) is contacted with each of the inhibiting agents at 37° C. for 10 minutes, and the lipase activity is measured.
The lipase in a concentration of about 3 U/ml is contacted with various inhibiting reagents at 37° C. for 10 minutes, and then the lipase activity is measured.
Glycine buffer (1 mole, pH 8.7): 2.0 ml
Olive oil emulsion: 2.5 ml
The olive oil emulsion is prepared by adding 20 g of olive oil to 180 ml of a 10% aqueous solution of gum arabic, homogenizing the mixture at 11,000 r.p.m. for 15 minutes while it is cooled to 5°-10° C., and adjusting the pH of the homogenized mixture to 8.7.
The reaction mixture is placed in a 25 ml glass stopper tube, and reacted exactly for 10 minutes at 37° C. Then, the reaction is stopped by adding 1 ml of 2 N sulfuric acid, and 15 ml of a mixture of n-heptane and isopropanol in a ratio of 11:4 is added. The mixture is vigorously shaken for 30 seconds, and allowed to stand for more than 30 minutes. […] The mixture is treated in the same way as above, and the resulting product is titrated with a potassium hydroxide solution, and the measured value obtained is substracted from the measured value obtained above. The amount of fatty acid liberated is calculated from the resulting titration value with reference to the standard line prepared by using a known amount of palmitic acid. […]
The subject of experiment [3] is Lipase I of Japanese Laid-Open Patent Publication No. 21387/77, Alcaligenes sp. PL-266 Meito. To be noted: cited from earlier work.
The test system of experiment [4] is Lipase II of Japanese Laid-Open Patent Publication No. 21387/77, Alcaligenes sp. PL-266 Meito. To be noted: cited from earlier work.
Setting [5] is: concentration of bile salt 0.2%.
The mark [6] stands for this setting: concentration of bile salt 0.4%.
[7] abbreviates: concentration of bile salt 0.6%.
The mark [8] stands for this setting: concentration of bile salt 0.8%.

Structures are written as SMILES. Like-named read-outs stand apart in the source and are kept apart here.

As for `C[C@H](CCC(=O)O)[C@H]1CC[C@H]2[C@@H]3[C@H](O)C[C@@H]4C[C@H](O)CC[C@]4(C)[C@H]3C[C@H](O)[C@]12C` [Cholate], the “Lipase activity, percentage based on the lipase activity in the absence of a bile salt” value in experiment [1] (setting [5]) is given as 197%; in experiment [1] (setting [6]) it was 221%; in experiment [1] (setting [7]), 211%; in experiment [1] (setting [8]), 229%.
Taken in the same sequence, the figures for `C[C@H](CCC(=O)O)[C@H]1CC[C@H]2[C@@H]3CC[C@@H]4C[C@H](O)CC[C@]4(C)[C@H]3C[C@H](O)[C@]12C` [Desoxycholate] were 289%, 300%, 305% and 303%.
For `C[C@H](CCC(=O)NCC(=O)O)[C@H]1CC[C@H]2[C@@H]3[C@H](O)C[C@@H]4C[C@H](O)CC[C@]4(C)[C@H]3C[C@H](O)[C@]12C` [Glycocholate], the “Lipase activity, percentage based on the lipase activity in the absence of a bile salt” value worked out at 218% in experiment [1] (setting [5]), 221% in experiment [1] (setting [6]), 232% in experiment [1] (setting [7]) and 224% in experiment [1] (setting [8]).
As to `CCOC(=O)OC(=O)OCC` [ethoxyformic anhydride], the “Activity inhibition of the lipase” value in experiment [2] is “about 70%”.
Still for that read-out and setting: the entry for `II` [iodine] is “about 95%”.
Take `O=C(O)CI` [monoiodoacetic acid]: the “Activity inhibition by monoiodoacetic acid” value in experiment [3] (concentration 10^-3 mole) and in experiment [4] (concentration 10^-3 mole) was “Not inhibited” in each case.
Regarding `O=C1O[C@H]([C@@H](O)CO)C([O-])=C1O.[Na+]` [sodium ascorbate], the “Activity inhibition by sodium ascorbate” value in experiment [3] (concentration 10^-2 mole) and in experiment [4] (concentration 10^-2 mole) was “Not inhibited” each time.
